Key:
[1] = tested on: Plasmodium falciparum chloroquine resistant (W2) strain; assay: In vitro antiplasmodial activity, blood smear (traditional) test, 48 h; type: cell-based; conditions: W2, 48 h, read-out: IC50 ± SD P. falciparum
Protocol: The parasites were synchronized using sorbitol treatment and the parasitemia was microscopically evaluated with Giemsa-stained blood smears.
After 48 h, blood smears were prepared, coded, stained with giemsa and examined at 1000×magnification. The parasitemia of controls (considered as 100% growth) was compared to test cultures, and then the percentage of infected red blood cells was calculated.
The results were expressed as mean of half-maximal inhibitory dose (IC50), with different drug concentrations performed in triplicate and compared with drug-free controls. Curve fitting was performed using OriginPro® 8.0 software (Origin Lab Corporation, Northampton, MA, USA).

[2] = in vitro; conditions: human, LC50 ± SD WI-26VA4
Protocol: (§1) Negative controls were composed of cells without treatment. Five serial dilutions (1:10) were made from a stock solution (10 mg mL − 1) using RPMI supplemented with 1% FBS. Cell viability was evaluated after 48 h of incubation by discarding the medium and adding 100 μL of 5% MTT, followed by 3 h of incubation. Then, the supernatant was discarded, and insoluble formazan product was dissolved in DMSO. The optical density (OD) of each well was measured using a microplate spectrophotometer at 550 nm. The OD of untreated control cells was defined as 100% cell viability and all assays were performed in triplicate. The selectivity index (SI) of samples was calculated by following Eq. 1 [29].1 SI=LC50of WI-26VA4 cell line/IC50ofP.falciparumstrain W2

[3] = tested on: human lung fibroblast cell line WI-26VA4 (ATCC CCL-95.1); assay: in vitro; conditions: 48 h
Protocol: as §1

Compound	IC50 [1]	CC50 at 48 h [2]	CC50 [3]
O=C(O)CCC(=O)Nc1ccc(C(=O)N/N=C/c2cccc(O)c2)cc1 [AH6, 4-[(4-{[(2E)-2-(3-hydroxybenzylidene)hydrazino]carbonyl}phenyl)amino]-4-oxobutanoic acid]	> 1000 nM	100 ± 0.17 µM	
O=C(N/N=C/c1cccc(O)c1)c1ccccc1 [AH1, N'-[(1E)-(3-hydroxyphenyl)methylene]benzohydrazide]	190 ± 100 nM	> 100 µM	> 100 µM
O=C(N/N=C/c1cccc(O)c1)c1ccc(O)cc1 [AH4, 4-hydroxy-N'-[(1E)-(3-hydroxyphenyl)methylene]benzohydrazide]	90 ± 50 nM	> 100 µM	> 100 µM
O=C(N/N=C/c1cccc(O)c1)c1ccc(Cl)cc1 [AH2, 4-chloro-N'-[(1E)-(3-hydroxyphenyl)methylene]benzohydrazide]	2150 ± 90 nM	> 100 µM	> 100 µM
CCN(CC)CCCC(C)Nc1ccnc2cc(Cl)ccc12 (stereo not drawn) [Chloroquine, reference compound]	57 ± 140 nM		
O=C(N/N=C/c1cccc(O)c1)c1ccc(NC(=O)c2ccccc2)cc1 [AH5, N-(4-{[(2E)-2-(3-hydroxybenzylidene)hydrazino]carbonyl}phenyl) benzamide]	70 ± 70 nM	> 100 µM	> 100 µM
O=C(N/N=C/c1cccc(O)c1)c1ccc([N+](=O)[O-])cc1 [AH3, N'-[(1E)-(3-hydroxyphenyl)methylene]-4-nitrobenzohydrazide]	> 1000 nM	100 ± 0.19 µM	
CO[C@H]1O[C@@H]2O[C@@]3(C)CC[C@H]4[C@H](C)CC[C@@H]([C@H]1C)[C@@]24OO3 [Artemether, reference compound]	< 1010 nM	100 ± 0.18 µM	
O=C(N/N=C/c1cccc(O)c1)c1ccncc1 [AH7, N'-[(1E)-(3-hydroxyphenyl)methylene]isonicotinohydrazide]	> 1000 nM	100 ± 0.13 µM	
